Assay results from patent US9707244B2, “Compositions and methods for treating conditions that affect epidermis” (Gencia Corporation, priority 2013, dated 2017).
“Also recorded” adds a separate entry of the source.

Tests used:
[1] = tested on: AG11073 senescent fibroblasts; test: Intracellular collagen type I immunolabeling and image analysis; format: cell-based, human
Procedure: The cell line AG11073 senescent fibroblasts, at passage 20, were plated onto a multi-chambered glass slide. Dulbecco's Modified Eagle Medium (DMEM) supplemented with the appropriate serum and antibiotics and either containing vehicle or 25 nM of Mitocreatine was added to each chamber. Cells were treated once daily with fresh media containing either vehicle or 25 nM mitocreatine for seven days. At the completion of the treatment period, the cells were washed with warm PBS and fixed with ice cold acetone. The chambers were removed and the slide immunoprobed with an anti-collagen type I antibody (ab292, Abcam). An Alexa-488 secondary antibody was used for detection and DAPI used to stain nuclei.
The cells utilized were human skin fibroblast acquired from Coriell Cell Repository. The cell line AG11073 is untransformed human skin fibroblasts from a person. The primary culture was initiated from explants of a 2 mm-punch biopsy. The cell line AG16409 is untransformed human skin fibroblasts from a person. Aged senescent fibroblasts (Coriell AG11073) were cultured for 7 days with either vehicle or 25 nM mitocreatine. Cells were probed with anti-collagen type I antibody (green) and DAPI (blue) for nuclei to assess changes in collagen type I expression.
Cell area and mean pixel intensity of the green fluorescence was acquired using Image J software. Image analysis supports an increase in cell area as well as an increase in intracellular collagen type I.
Image data from the immunolabeling of collage type I study was also used to quantify the amount of collagen immunolabeling in the AG11073 senescent fibroblast treated with 25 nM Mitocreatine in vehicle for seven days.

[2] = tested on: ARPE-19 cells, a retinal pigmented epithelial cell line; test: DCFDA ROS production in senescent ARPE-19 cells; format: cell-based, human; details: forty-eight hours after treatment; increasing concentrations
Procedure: In the present invention ARPE-19 cells were used to evaluate whether Mitocreatine improves mitochondrial parameters and reduces ROS in a cell model of AMD. The cells were prematurely senescenced according to the protocol of Glotin et al. (2008). ARPE-19 cells, a retinal pigmented epithelial cell line, were prematurely senesced according to the protocol of Glotin et al. (2008). Cells were plated in a 96 well plate for analysis of reactive oxygen species (ROS) production using DCFDA, a fluorogenic dye that is oxidized by hydroxyl, peroxyl and other ROS.

[3] = RIPT (Repeat Insult Patch Test) study; format: in vivo, human; details: 0.1% topical formulation
[4] = tested on: ARPE-19 cells, a retinal pigmented epithelial cell line; test: WST-1 cell viability in senescent ARPE-19 cells; format: cell-based, human; details: up to 1 uM; twenty-four hours after treatment
Procedure: In the present invention ARPE-19 cells were used to evaluate whether Mitocreatine improves mitochondrial parameters and reduces ROS in a cell model of AMD. The cells were prematurely senescenced according to the protocol of Glotin et al. (2008). […] Cells were plated in a 96 well plate for analysis of WST-1 bioreduction, a formazan based dye similar to MTT whose bioreduction is largely dependent on the glycolytic production of NAD(P)H in viable cells and is routinely used to monitor cell viability.

[5] = tested on: ARPE-19 cells, a retinal pigmented epithelial cell line; test: XF24 oxygen consumption in senescent ARPE-19 cells; format: cell-based, human; details: twenty-four hours after treatment; increasing concentrations
Procedure: In the present invention ARPE-19 cells were used to evaluate whether Mitocreatine improves mitochondrial parameters and reduces ROS in a cell model of AMD. The cells were prematurely senescenced according to the protocol of Glotin et al. (2008). […] Cells were plated in a XF24 (Seahorse Biosciences) plate for analysis of mitochondrial activities. Twenty-four hours before analysis in the XF24 instrument, cells were treated with increasing concentrations on mitocreatine and vehicle. Twenty-four hours after treatment basal oxygen consumption rates (OCR) were assayed. […] Cells were plated in a XF24 (Seahorse Biosciences) plate for analysis of mitochondrial activities. Twenty-four hours before analysis in the XF24 instrument, cells were treated with increasing concentrations on mitocreatine and vehicle. Twenty-four hours after treatment FCCP-stimulated oxygen consumption rates (maximal OCR) were assayed.

[6] = tested on: AG16409 untransformed human skin fibroblasts from a person; test: Cellular senescence assay (SA-β-Gal fluorometric), young fibroblasts; format: cell-based; details: increasing concentration
From the text: Senescent cells show common biochemical markers such as expression of an acidic senescence-associated β-galactosidase (SA-β-Gal) activity. While senescence has been characterized primarily in cultured cells, there is also evidence that it occurs in vivo. Cells expressing markers of senescence such as SA-β-Gal have been identified in normal tissues. To determine whether modified Mitocreatine analogues may influence the scenesence in aged fibroblasts, a 96-well Cellular Senescence Assay (SA-β-Gal Fluorometric Format) Cat # CBA-231 Cell Biolabs, Inc. was employed and buffers referenced were supplied by the manufacturer and in some cases freshly prepared prior to usage according to the manufacturer's instructions.
The cells utilized were Human Skin Fibroblast acquired from Coriell Cell Repository. The cell line AG11073 is untransformed human skin fibroblasts from a person. The primary culture was initiated from explants of a 2 mm-punch biopsy. The cell line AG16409 was untransformed human skin fibroblasts from a person.
Cells were grown in a 96 well plate. […]
50 μL, of the reaction mixture was removed to a 96-well plate suitable for fluorescence measurement. The reaction was stopped by adding 200 μL of Stop solution and fluorescence was measured with a fluorescence plate reader (PHERA Star FS from BMG Labtech) at 360 nm (Excitation)/465 nm (Emission).

allergenicity in RIPT [3]: hypoallergenic
Structure (SMILES): CN(CC(=O)NCCC[P+](c1ccccc1)(c1ccccc1)c1ccccc1)C(=N)N.Cl.[Cl-] [Mitocreatine, N^2-[ammonio(imino)methyl]-N^2-methyl-N-[3-(triphenylphosphonio)propyl] glycinamide dichloride]
induction in collagen type I levels ([1]; 25 nM for seven days, fluorescent intensity per area unit normalized to untreated cells): 7 fold
intracellular collagen type I ([1]; 25 nM once daily for seven days): significant increase in intracellular collagen; also recorded: significant increase in collagen type I expression
cell numbers / cell proliferation ([1]; 25 nM once daily for seven days, senescent cells): significant increase in cell numbers; also recorded: induced cell proliferation
ROS production [2]: dose-independent decrease
cell viability (WST-1) [4]: does not negatively impact cell viability
basal oxygen consumption [5]: dose-dependent increase
maximal oxygen consumption (FCCP-stimulated) [5]: dose-dependent increase
β-galactosidase expression/activity (senescence marker) [6]: this decrease failed to reach statistical significance; also recorded: statistically insignificant decrease
